Laboratory results: PMC8795404, “Mutations in respiratory complex I promote antibiotic persistence through alterations in intracellular acidity and protein synthesis” (Nature Communications, 2022)

Tests used:
Type in all cases: biochemical
[1] = target: T1, complex I (NADH/ubiquinone oxidoreductase) (Escherichia coli, UniProt P0AFC7+P0AFD4+P31979+P33599); assay: NADH absorbance at […] nm, proteoliposomes; conditions: 100 µM NADH, 60 µM decyl-ubiquinone, 5 mM MES/NaOH, 50 mM KCl, 2 mM MgCl2, pH 6.0, 30 °C
T1 construct: gene nuoB; 13-subunit complex, about 550 kDa, NuoF His6-tagged (pBADnuo nuoFHis6) expressed in BW25113 delta-nuo delta-ndh; DDM-purified, in proteoliposomes or in membranes; with NADH-quinone oxidoreductase subunit A; NADH-quinone oxidoreductase subunit E; NADH-quinone oxidoreductase subunit G; NADH-quinone oxidoreductase subunit I; NADH-quinone oxidoreductase subunit J; NADH-quinone oxidoreductase subunit K; NADH-quinone oxidoreductase subunit L; NADH-quinone oxidoreductase subunit M; NADH-quinone oxidoreductase subunit N

[2] = target: T2, ENC-spoT (encapsulin SpoT) (Escherichia coli, UniProt P0AG24); assay: HPLC-UV ([…] nm) ppGpp hydrolysis; conditions: 1 mM ppGpp, 1 mM manganese, cytosolic buffer with 250 mM imidazole and 0.1% triton-X100, 25 °C, pH varied; enzyme encapsulated in nanocage
T2 construct: N-terminal 6xHis tag, C-terminal 30-residue DyP-peroxidase cargo tag; co-expressed in E. coli BL21-AI inside Mycolicibacterium hassiacum encapsulin nanocage
T2 sequence (P0AG24 whole entry): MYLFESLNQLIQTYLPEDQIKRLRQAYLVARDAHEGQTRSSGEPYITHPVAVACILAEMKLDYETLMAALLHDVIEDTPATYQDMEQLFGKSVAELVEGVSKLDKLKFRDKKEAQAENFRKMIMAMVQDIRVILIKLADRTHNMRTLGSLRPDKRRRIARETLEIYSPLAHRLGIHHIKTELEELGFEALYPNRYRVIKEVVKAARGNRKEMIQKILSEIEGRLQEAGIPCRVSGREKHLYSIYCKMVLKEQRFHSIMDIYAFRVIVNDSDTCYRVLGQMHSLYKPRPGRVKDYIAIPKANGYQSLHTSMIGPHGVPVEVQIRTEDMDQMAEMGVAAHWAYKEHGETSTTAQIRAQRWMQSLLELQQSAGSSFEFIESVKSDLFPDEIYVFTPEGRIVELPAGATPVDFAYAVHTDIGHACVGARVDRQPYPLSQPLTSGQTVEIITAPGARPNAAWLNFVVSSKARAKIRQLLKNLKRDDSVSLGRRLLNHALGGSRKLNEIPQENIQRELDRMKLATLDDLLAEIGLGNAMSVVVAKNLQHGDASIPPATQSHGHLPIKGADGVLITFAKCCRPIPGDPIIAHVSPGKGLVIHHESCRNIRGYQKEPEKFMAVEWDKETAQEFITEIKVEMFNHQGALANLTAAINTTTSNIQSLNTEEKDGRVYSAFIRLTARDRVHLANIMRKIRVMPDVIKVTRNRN

6His-SpoT = target: T3, 6His-SpoT (Escherichia coli, UniProt P0AG24); assay: HPLC-UV ([…] nm) ppGpp hydrolysis; conditions: 1 mM ppGpp, 1 mM manganese, cytosolic buffer with 250 mM imidazole, 25 °C, pH varied; free enzyme
T3 construct: full-length with N-terminal His tag (pETM11-SpoT), expressed in E. coli BL21 (DE3) pLysS, Ni-Sepharose purified
T3 sequence (P0AG24 whole entry): as above

Structure (SMILES): NC(=O)C1=CN([C@@H]2O[C@H](COP(=O)(O)OP(=O)(O)OC[C@H]3O[C@@H](n4cnc5c(N)ncnc54)[C@H](O)[C@@H]3O)[C@@H](O)[C@H]2O)C=CC1 [NADH]
- NADH absorbance at 340 nm, proteoliposomes [1]: liposomes reconstituted with wild-type complex I and the variants oxidized NADH at a similar rate

Structure (SMILES): CCCCCCCCCCC1=C(C)C(=O)C(OC)=C(OC)C1=O [decyl ubiquinone]
- NADH absorbance at 340 nm, proteoliposomes [1]: NADH/decyl ubiquinone oxidoreduction was followed by monitoring the decreasing NADH concentration

Structure (SMILES): Nc1nc2c(ncn2[C@@H]2O[C@H](COP(=O)(O)OP(=O)(O)O)[C@@H](OP(=O)(O)OP(=O)(O)O)[C@H]2O)c(=O)[nH]1 [ppGpp]
- HPLC-UV (260 nm) ppGpp hydrolysis [2]: We used both the encapsulated SpoT and regularly purified SpoT
- HPLC-UV (260 nm) ppGpp hydrolysis (6His-SpoT): SpoT hydrolyzes ppGpp to GDP, and that manganese ions are necessary for hydrolysis
